Values quoted from earlier work, collected in patent US20060014804A1, “Cyanoguanidine prodrugs” (Leo Pharma A/S, priority 2002, published 2006).

Columns and labels:
[1] = test system: normal human endothelial cells
[2] = test system: human lung cancer tumour xenograft; conditions: nude mice
[3] = test system: human lung and breast cancer cell lines
human tumour cells [4] = conditions: compared with daunorubicin and paclitaxel
human tumour cells [5] = conditions: nude mice transplanted with human tumour cells, also paclitaxel-resistant tumour cells

N#CNC(=Nc1ccncc1)NCCCCCCOc1ccc(Cl)cc1 [N-(6-(4-chlorophenoxy)hexyl)-N′-cyano-N″-(4-pyridyl)guanidine]
antiproliferative activity on normal human endothelial cells [1]: considerably less antiproliferative activity | antitumour activity in the nude mouse model [2]: potent antitumour activity | antiproliferative activity in vitro [3]: high antiproliferative activity in vitro | potency in vitro (human tumour cells [4]): comparable to that of the reference cytostatic agents daunorubicin and paclitaxel | antitumour activity in vivo (human tumour cells [5]): substantial antitumour activity
